Results: article PMC3431920 (Molecular bioSystems, 2012)

Tests used:
[1] = tested on: MCF-7 cells; assay: MTS cell viability assay, 24h treatment; type: cell-based; settings: result in words
[2] = Water solubility; type: physicochemical; settings: result in words; method not given

water solubility [2] | Structure (SMILES) | cytotoxicity (in words) [1]
– | N=C(N)NCCC[C@H](NC(=O)[C@H](CCCNC(=N)N)NC(=O)[C@H](CCCNC(=N)N)NC(=O)[C@H](CCCNC(=N)N)NC(=O)[C@H](CCCNC(=N)N)NC(=O)[C@H](CCCNC(=N)N)NC(=O)[C@H](CCCNC(=N)N)NC(=O)[C@H](CCCNC(=N)N)NC(=O)c1ccc2c(c1)C(=O)OC21c2ccc(O)cc2Oc2cc(O)ccc21)C(N)=O [Construct 1] | minor cytotoxicity
good water solubility | C[C@@H](c1ccccc1)N(CC(N)=O)C(=O)CN(C(=O)CN(CCCCN)C(=O)CN(C(=O)CN(C(=O)CN(CCCCN)C(=O)CN(C(=O)CN(C(=O)CN(CCCCN)C(=O)CN(C(=O)CN(C(=O)CN(CCCCN)C(=O)c1ccc2c(c1)C(=O)OC21c2ccc(O)cc2Oc2cc(O)ccc21)[C@@H](C)c1ccccc1)[C@@H](C)c1ccccc1)[C@@H](C)c1ccccc1)[C@@H](C)c1ccccc1)[C@@H](C)c1ccccc1)[C@@H](C)c1ccccc1)[C@@H](C)c1ccccc1 [Construct 4] | –
